Square brackets hold non-standard residues; d marks the D form. Peptide text beside a SMILES is read from it. * marks the point of attachment. Sta = CC(C)C[C@H](N)[C@@H](O)CC(=O)O; Isovaleryl = CC(C)CC(=O)*
Key:
[1] = system: mouse pancreatic islets; experiment: Static incubation of isolated pancreatic islets, insulin secretion; format: cell-based; conditions: for effect on basal or glucose-stimulated insulin secretion: 100 μM Cathepsin B Inhibitor II, 20 μM Lactacystin; for insulin secretory responses to 20 mM glucose in presence of other protease inhibitors: 100 μM inhibitor
Protocol: Static incubation of isolated pancreatic islets. Isolation of mouse pancreatic islets was accomplished using collagenase digestion as previously described (Pontoglio et al., 1998). […] Triplicate groups of 5 islets were then incubated in borosilicate tubes containing 1 ml of KRB with the same concentration of inhibitor and various insulin secretagogues for one hour in a moving water bath at 37° C. The reaction was stopped by placing the tubes on ice and an aliquot of the buffer was removed for measurement of insulin levels. Control studies, in which the incubation mixture contained vehicle (0.1% DMSO) only, were performed using aliquots of the same batch of islets
Assay methods. Insulin concentrations were measured by a double antibody radioimmunoassay using a rat insulin standard. The intra-assay coefficient of variation for this technique is 7%. All samples were assayed in duplicate.

[2] = system: perifused mouse islets; experiment: Insulin secretion from perifused islets; format: cell-based; conditions: 4 hr preincubation; 100 μM ALLM, 200 μM E-64-d
Protocol: Insulin secretion from perifused islets. Insulin secretion from perifused islets was measured using a modification of a previously described protocol (Pontoglio et al., 1998; Sreenan et al., 1998).

[3] = system: isolated β-cells; experiment: Membrane capacitance recordings (exocytosis) in isolated β-cells; format: cell-based, mouse; conditions: 4 days culture with inhibitor
Protocol: Isolation of pancreatic β-cells. Single β-cells were obtained from isolated islets dispersed by gentle trituration (120 strokes through a 200 μl pipette tip) in Ca^2+ and Mg^2+-free PBS containing […]. Cells were plated on glass coverslips and maintained in culture in RPMI containing 11.6 mM glucose for 48-96 hr.
Capacitance recordings. Capacitance measurements were made with the phase-tracking technique in which a 60 mV peak-to-peak sine wave was superimposed on a holding potential of −80 mV as previously described. Conductance and capacitance values were continuously generated and recorded. The whole-cell capacitance was canceled with the slow capacitance compensation; unbalancing the slow capacitance compensation by 100 fF provided the capacitance calibration signal used to calculate changes in membrane capacitance. The sinusoidal voltage template was interrupted to deliver depolarizations to a cell. Beta cells were stimulated with a train of ten step depolarizations to +20 mV (HP=−80 mV). Each step depolarization lasted 150 ms and was separated by 400 ms interpulse duration. Capacitance measurements were carried out in the perforated whole-cell configuration. The data were collected at a 500 μsec sampling rate and filtered at 5 kHz. Recordings with series resistance >20 MΩ were discarded. Series resistance compensation was applied in all recordings.
The recording solution for the capacitance measurements contained (in mM): 130 NaCl, 2 glucose, 10 Na-HEPES, 1 MgCl2, 2 KCl, and 5 CaCl2, pH 7.3 with NaOH. The pipette solution contained (in mM): 135 Cs-glutamate, 10 Na-HEPES, 9.5 NaCl, 0.5 TEACl, and 0.5 CaCl2, pH7.3 with CsOH. The pipettes were backfilled with an identical solution to which amphotericin B (final concentration of 0.5 mg/ml) was added and then sonicated. The amphotericin B stock solution (125 mg/ml) was kept frozen at −20° C. and used for one week. ALLM pre-treatment was as described above (see patch-clamp electrophysiology section). All electrophysiological recordings were carried out at room temperature (22-24° C.)

[4] = system: mouse islets; experiment: Measurement of islet [Ca2+]i (Fura-2); format: cell-based
Protocol: (§1) Measurement of islet [Ca^2+]i, and NAD(P)H. Islet [Ca^2+]i and NAD(P)H were measured as previously described (Pontoglio et al., 1998; Dukes et al., 1998).
Insulin secretory responses to glucose and most other secretagogues is mediated by a rise in intracellular free calcium ([Ca^2+]i). We therefore measured [Ca^2+]i responses to glucose, KIC and KCl using Fura-2 as the Ca^2+ indicator. In comparison to the responses from the control islets, the most prominent abnormality in [Ca^2+]i responses to glucose and KIC was a delay of the [Ca^2+]i responses (FIG. 21). The mean time interval between administration of 14 mM glucose and the point of half maximal response (T1/2.) was 120±14 seconds in control islets. […] There was no delay in the appearance of [Ca^2+]i response to KCl, nor was the magnitude of the response reduced.

[5] = system: mouse islets; experiment: Glucose utilization and oxidation rates in islets; format: cell-based
Protocol: Glucose utilization and oxidation rates. Glucose utilization and oxidation rates were measured as previously described (Dukes et al., 1998; Zhou et al., 1996) in mouse islets cultured as described above in the presence or absence of calpain inhibitors.

[6] = system: mouse islets; experiment: Islet NAD(P)H autofluorescence response; format: cell-based
Protocol: as §1

[7] = system: calpain; experiment: Calpain activity in mouse pancreatic islets (Boc-Leu-Met-CMAC cleavage); format: cell-based
[8] = system: rat adipocytes; experiment: 2-Deoxyglucose uptake into adipocytes; format: cell-based; conditions: 100 μM ALLM or 200 μM E-64-d
Protocol: Adipocytes were isolated from epididymal fat pads of 3 month old male Wistar rats as described previously (Robdell, 1964) with the following modification: fat pads were minced to 1-2 mm pieces and incubated for ˜25 min at 37° C. with collagenase I (1 mg/ml, Worthington Biochemicals, Lakewood, N.J.) in KRB containing 10 mM Hepes (pH 7.4), 0.2% BSA and 2 mM sodium pyruvate. The cell suspension was filtered through a nylon mesh (134 μM, Spectrum Lab., Laguna Hills, Calif.) washed three times by floating and allowed to rest for 45 min in the KRB. […] Then another 50 μl of KRB containing 5 mM 2-DOG (final concentration 1 mM), 0.5 μCi of 2-deoxy-[2,6-^3H]glucose was added and cells were incubated for a further 5 min at 25° C. The transport was stopped by adding cytochalasin B (final concentration 50 μM) and cells were spun through 250 μl of dinonyl phthalate oil (Fisher Scientific, Pittsburgh, Pa.). Cells were then transferred to scintillation vials for counting.

[9] = system: rat soleus muscle strips; experiment: 2-Deoxyglucose uptake into soleus muscle strips; format: cell-based; conditions: 100 μM ALLM or 200 μM E-64-d
Protocol: 2-Deoxyglucose uptake into skeletal muscle and adipose tissue. 2-deoxyglucose (2-DOG) uptake by isolated strips of soleus muscle from normal Wistar rats was measured using a modification of a previously described protocol (Burant et al., 1984). […] Muscles were then extracted and 2-DOG uptake calculated as previously described (Burant et al., 1984).

[10] = system: soleus muscle strips; experiment: Glycogen synthesis rates in skeletal muscle; format: cell-based, rat; conditions: 100 μM ALLM or 200 μM E-64-d
Source text: Glycogen synthesis rates in skeletal muscle.

[11] = system: islets; experiment: Insulin content of islets after 48 h inhibitor exposure; format: cell-based, mouse; conditions: 48 hours treatment

**Q.** How did the “inhibition of 20 mM glucose-stimulated insulin secretion” value ([1]; 48 h, 100 μM ALLM (so in the source), 50 μM MDL28170) turn out when MDL28170 was run?
**A.** approximately 60%

**Q.** CC(=O)N[C@@H](CSC(=O)[C@]1([C@@H](O)C(C)C)NC(=O)[C@H](C)[C@@H]1O)C(=O)O [Lactacystin] was tested. Which “effect on basal or glucose-stimulated insulin secretion” value ([1]; 48 h) did it give?
**A.** did not significantly affect

**Q.** Which “insulin secretory responses to 20 mM glucose in presence of other protease inhibitors” value [1] does the source give for CC(=O)N[C@@H](CC(C)C)C(=O)N[C@H](C(=O)N[C@H](C=O)CCCCN)C(C)C [Cath B Inhibitor II] (Ac-Leu-Val-Lys-aldehyde) here?
**A.** not altered

**Q.** What about the “effect on basal or glucose-stimulated insulin secretion” value ([1]; 48 h) of the same compound?
**A.** did not significantly affect

**Q.** CC(C)CC(=O)N[C@H](C(=O)N[C@H](C(=O)N[C@@H](CC(C)C)[C@@H](O)CC(=O)N[C@@H](C)C(=O)N[C@@H](CC(C)C)[C@@H](O)CC(=O)O)C(C)C)C(C)C [pepstatin A] (Isovaleryl-VV[Sta]A[Sta]-OH) was tested. Which “insulin secretory responses to 20 mM glucose in presence of other protease inhibitors” value [1] did it give?
**A.** not altered

**Q.** Which “insulin secretory response to 20 mM glucose after recovery” value ([1]; 48-h treatment, then 2 days recovery without inhibitor) does the source give for CCOC(=O)[C@H]1O[C@@H]1C(=O)N[C@@H](CC(C)C)C(=O)NCCC(C)C [E-64-d, ethyl (+)-(2S,3S)-3-[(S)-3-Methyl-1-(3-methylbutylcarbamoyl)butyl-carbamoyl]-2-oxiranecarboxylate] here?
**A.** essentially normal insulin secretory response

**Q.** What about the “effect on insulin secretion at 2 mM glucose” value ([1]; 4 hr exposure, ALLM 250 μM, E-64-d 200 μM, 2 mM glucose) of the same compound?
**A.** not observed

**Q.** And the “basal insulin secretion (2 mM glucose) vs control-treated islets” value ([1]; 48 hours exposure)?
**A.** no significant difference

**Q.** What about the “insulin secretory response to 30 mM KCl” value ([1]; 48 h treated islets) of the same compound?
**A.** significantly reduced

**Q.** What about the “insulin secretory response to carbachol” value ([1]; 48 h treated islets) of the same compound?
**A.** attenuated

**Q.** What about the “insulin secretory response to glyceraldehyde” value ([1]; 48 h treated islets) of the same compound?
**A.** responded normally

**Q.** What about the “insulin secretory response to mastoparan” value ([1]; 48 h treated islets) of the same compound?
**A.** attenuated

**Q.** What about the “insulin-secretory response to keto-isocaproic acid (KIC)” value ([1]; 48 h treated islets) of the same compound?
**A.** decreased

**Q.** And the “insulin secretory responses to glucose (summary statement of Example 8)” value ([1]; isolated mouse islets, introductory summary, no conditions given)?
**A.** increase in glucose induced insulin secretion

**Q.** What about the “enhancement of insulin secretory response to 20 mM glucose in dynamic islet perifusion” value [2] of the same compound?
**A.** also observed

**Q.** What about the “rates of exocytosis in β-cells” value [3] of the same compound?
**A.** significantly lower rates of exocytosis

**Q.** And the “[Ca2+]i response to high glucose” value ([4]; 4 hr preincubation, 14 mM glucose)?
**A.** not associated with increases in [Ca^2+]i

**Q.** And the “[Ca2+]i response to glucose ramp (2 to 26 mM over 48 mins)” value ([4]; 48 h treated islets)?
**A.** diminished

**Q.** And the “[Ca2+]i responses to 30 mM KCl vs control” value ([4]; 48 h treated islets)?
**A.** not different

**Q.** And the “integrated [Ca2+]i responses (area under the curves) to glucose and KIC vs control” value ([4]; 48 h treated islets)?
**A.** significantly smaller

**Q.** What about the “T1/2 of [Ca2+]i response to 14 mM glucose (time to half maximal response)” value ([4]; 48 h treated islets, control 120±14 seconds) of the same compound?
**A.** 4.42 ± 1.08 min

**Q.** And the “T1/2 of [Ca2+]i response to KIC” value ([4]; 48 h treated islets, control 125±9)?
**A.** 5.5 ± 0.12 min

**Q.** What about the “rate of glucose utilization at basal glucose” value ([5]; 2 mM glucose, 100 μM ALLM or 200 μM E-64-d, 4 h) of the same compound?
**A.** 15.5±4 pmol/islet/hr

**Q.** What about the “rate of glucose utilization at stimulatory glucose” value ([5]; 20 mM glucose, 100 μM ALLM or 200 μM E-64-d, 4 h) of the same compound?
**A.** 79.5±9.5 pmol/islet/hr

**Q.** What about the “rate of basal glucose utilization and oxidation at 3.3 mM glucose” value ([5]; 48 h treated islets) of the same compound?
**A.** no significant changes

**Q.** What about the “rates of glycolysis and glucose oxidation at stimulating concentrations of glucose” value ([5]; 48 h treated islets vs controls) of the same compound?
**A.** significantly reduced

**Q.** What about the “glucose oxidation rate at basal glucose” value ([5]; basal glucose, ALLM or E-64-d, 4 h) of the same compound?
**A.** 5.2±0.4 pmol/islet/hr

**Q.** And the “glucose oxidation rate at stimulatory glucose” value ([5]; stimulatory glucose, ALLM or E-64-d, 4 h)?
**A.** 40.0±2.4 pmol/islet/hr

**Q.** And the “NAD(P)H response to increase in glucose from 2 to 14 mM” value ([6]; 100 μM ALLM or E-64-d, 4 hr preincubation)?
**A.** 2.8±0.3 fold increase

**Q.** And the “NAD(P)H responses to KIC vs control” value ([6]; 48 h treated islets)?
**A.** significantly reduced

**Q.** What about the “NAD(P)H responses to glucose vs control” value ([6]; 48 h treated islets) of the same compound?
**A.** comparable

**Q.** And the “area under the curve of rate of generation of fluorescent calpain product” value ([7]; 200 μM inhibitor, 4 hr incubation)?
**A.** 45±5 % of control values

**Q.** What about the “residual calpain activity in intact islets” value ([7]; 48 h treatment, 100 μM ALLM or 200 μM E-64-d) of the same compound?
**A.** 55±4 % of control treated islets

**Q.** And the “2-DOG uptake into adipocytes with insulin” value ([8]; insulin 12 nmol/L)?
**A.** 749±129 pmol/2×10^5 cells/5 min

**Q.** And the “2-DOG uptake into adipocytes without insulin” value ([8]; no insulin)?
**A.** 361±29 pmol/2×10^5 cells/5 min

**Q.** What about the “2-deoxyglucose uptake into soleus muscle strips with insulin” value ([9]; insulin 12 nM) of the same compound?
**A.** 0.36±0.02 (mol/ml H20/30 mins

**Q.** And the “2-deoxyglucose uptake into soleus muscle strips without insulin” value ([9]; no insulin)?
**A.** 0.31±0.02 (mol/ml H20/30 mins

**Q.** What about the “magnitude of insulin-induced increase in muscle glycogen synthesis” value ([10]; insulin 6 nM) of the same compound?
**A.** 0.31±0.09 nmol glucose/mg/hr

**Q.** What about the “rate of muscle glycogen synthesis with insulin” value ([10]; insulin 6 nM) of the same compound?
**A.** 0.80±0.14 nmol glucose/mg/hr

**Q.** And the “rate of muscle glycogen synthesis without insulin” value ([10]; no insulin)?
**A.** 0.49±0.08 nmol glucose/mg/hr

**Q.** What about the “insulin content in islets vs control islets” value [11] of the same compound?
**A.** comparable

Source: patent US20060234276A1, “Methods of treatment of type 2 diabetes” (priority 1998, published 2006)
